Test results: patent US20230018989A1, “INHIBITING THE RNA […] METTL3 OR ITS INTERACTION WITH EIF3H TO […] ONCOGENE TRANSLATION AND TUMORIGENESIS” (Children's Medical Center Corporation, priority 2019, published 2023)

Key:
A549 cells [1] = assay: Annexin V/PI apoptosis assay (FACS) upon JQ1 treatment; format: cell-based, human; settings: 500 nM JQ1, five days; METTL3 depleted A549 cells compared with control A549 cells
Method: (§1) FIGS. 7A-7N. METTL3 promotes translation of a large subset of mRNAs. (FIGS. 7A-7E) Global profiling of METTL3 target genes in HeLa. Cytoplasmic extracts from control or METTL3 depleted cells were subjected to sucrose gradient centrifugation. Total RNA, RNA from sub-polysome fractions and RNA from polysome fractions were analyzed by RNA-seq. (FIG. 7A) Peak analysis of polysome profiling. (FIG. 7B) Scatter plot of RNA-Seq data in METTL3 knockdown (shMETTL3) and control (shGFP) HeLa cells. Average read number from two individual METTL3 knockdown is plotted on the y-axis. (FIG. 7C) Scatter plot of RNA-Seq data in shMETTL3 and shGFP HeLa cells. Average read number from two shMETTL3 samples were calculated by the ratio of polysome fraction to the read number in the sub-polysome fraction and plotted on the y-axis. (FIG. 7D) Venn diagram showing the overlap of 2-fold less translated genes and METTL3 PAR-CLIP data. […] (FIG. 7N) Quantification of apoptotic cells, numbers represent ratio between death cells in JQ1 and DMSO treatments. […]
FIGS. 9A-9E. […] (FIG. 9B) Density plot reflects the distribution of changes in percent spliced In (APSI) values and according p-values for alternative splicing events detected by rMATs v3.2.5. […] (FIG. 9E) Annexin V/PI staining of METTL3 knockdown and control A549 cells upon JQ1 treatment that was analyzed by FACS. […]

A549 cells [2] = assay: MTS cell proliferation assay upon JQ1 treatment; format: cell-based, human; settings: 500 nM JQ1; METTL3 depleted A549 cells compared with control A549 cells
Method: as §1, with “y-axis.” for “y-axis. (FIG. 7D) Venn diagram showing the overlap of 2-fold less translated genes and METTL3 PAR-CLIP data.”
Cell proliferation and apoptosis assays were performed as described previously^8. […] Absorbances at 490 nm were measured using CellTiter 96 AQueous One Solution Cell Proliferation Assay kit (Promega) on day 2, day 4, and day 6 to measure the cellular proliferation. The numbers of apoptotic cells were quantified by flow cytometric assays using Annexin V-FITC Apoptosis Detection Kit (BioVision) five days after 500 nM of JQ1 treatment and cell seeding.

[3] = molecular target: eIF3h (endogenous, in cells) (human) (UniProt O15372); assay: cell-based or functional assay
Sequence of UniProt O15372 (O15372 whole entry): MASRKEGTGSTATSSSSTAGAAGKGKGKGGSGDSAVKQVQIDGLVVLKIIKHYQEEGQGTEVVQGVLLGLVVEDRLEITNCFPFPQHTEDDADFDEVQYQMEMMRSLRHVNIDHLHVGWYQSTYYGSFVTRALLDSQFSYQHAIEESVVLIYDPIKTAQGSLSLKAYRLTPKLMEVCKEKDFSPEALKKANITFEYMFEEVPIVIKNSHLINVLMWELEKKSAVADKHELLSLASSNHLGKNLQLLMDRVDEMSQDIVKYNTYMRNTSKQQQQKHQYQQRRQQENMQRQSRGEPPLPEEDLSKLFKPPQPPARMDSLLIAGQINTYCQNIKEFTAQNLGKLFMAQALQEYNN

Molecule | number of apoptotic cells, JQ1 versus DMSO (A549 cells [1]) | cellular proliferation (OD490), JQ1 versus DMSO (A549 cells [2]) | translation efficiency of reporter mRNA (tethering assay, FLuc-MS2bs, with control siRNA or eIF3h knockdown) [3] [fold]
Cc1sc2c(c1C)C(c1ccc(Cl)cc1)=N[C@@H](CC(=O)OC(C)(C)C)c1nnc(C)n1-2 [JQ1] | increased the number of apoptotic cells | stronger proliferation defect | –
FLAG-MS2-METTL3 (from UniProt Q86U44 1-580) | – | – | 2
